Experiment: gradient 5% acetonitrile 3 min, to 50% in 2 min, to 85% in 15 min, held 3 min, 100 µL/min
Settings: column: Zorbax Extend-C18 2.1 x 50 mm; eluents: water / acetonitrile, 0.1% formic acid
Outline: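 Retention times come from adduct peaks that were picked computationally and then checked by hand. The standards, pure and pooled in mixtures of ~100 molecules, were run on a Zorbax Extend-C18 column (2.1 × 50 mm, 1.8 μm) at 100 μL/min with water and acetonitrile, each with 0.1% formic acid. Detection was by quadrupole time-of-flight mass spectrometry in positive and negative ionization mode, with a dead volume of 40 μL and a dwell volume of 900 μL.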

Compared with `CC(C)CC(=O)N(CC(=O)N(Cc1ccc2c(c1)OCO2)Cc1ccco1)CC1CCCO1` (stereo not drawn), `Cc1ccc(N2CC(c3nc(-c4ccc5c(c4)OCO5)no3)CC2=O)cc1Cl` (stereo not drawn) is higher in RP-LC retention time: 866 s for the first, 1050 s for the second.

First: Cc1noc(-c2cccn2Cc2ccccc2Cl)n1
Second: Cc1ccc(N2CC(c3noc(-c4ccccc4OC(F)(F)F)n3)CC2=O)cc1 (stereo not drawn)
The RP-LC retention time of the first is higher: 1110 s for the first, 819 s for the second.

Compared with `COc1ccc(CNC(=O)C2CC(=O)N(c3ccc4c(c3)CCN4C(C)=O)C2)cc1` (stereo not drawn), `CCC(=O)N1CCc2cc(N3CC(C(=O)Nc4ccc(SC)cc4)CC3=O)ccc21` (stereo not drawn) is higher in RP-LC retention time: 664 s for the first, 789 s for the second.

Going from `CCOC(=O)C1CCc2sc(NC(=O)c3n[nH]c4ccccc34)nc21` (stereo not drawn) to `COC(=O)c1sc(NC(=O)COc2ccc(Cl)cc2)nc1C`, the RP-LC retention time rises from 852 s to 963 s.

Compared with `CCOc1ccccc1C(=O)N(C)CC1(C)CCOCC1`, `COc1ccc(OCc2noc(CNC(=O)C3(c4ccccc4)CCOCC3)n2)cc1` is higher in RP-LC retention time: 794 s for the first, 802 s for the second.

Going from `O=C(NCC1CCCO1)c1ccc(Cn2nc(N3CCN(c4ccccc4)CC3)ccc2=O)o1` (stereo not drawn) to `O=C(Cn1nc(C(=O)N2CCCC2)c2ccccc21)NCc1ccc(F)cc1`, the RP-LC retention time rises from 737 s to 780 s.

Going from `Cc1ccc(NC(=O)CCC(=O)N2CCSc3nc(C)cc(C)c32)cc1` to `COC(=O)c1sc2ccc(NC(=O)C3CCN(S(=O)(=O)c4cccs4)CC3)cc2c1OC`, the RP-LC retention time rises from 717 s to 988 s.

First: CCCc1noc(-c2nnn3c2COC(c2ccc(OC)cc2)C3)n1 (stereo not drawn)
Second: Cn1nc(-c2nnc(-c3ccc(F)cc3)o2)c2c1CCN(S(=O)(=O)c1ccccc1Cl)C2
The RP-LC retention time of the first is higher: 1010 s for the first, 990 s for the second.

Going from `CC(=O)N1CCCN(C2=NS(=O)(=O)C(c3ccc(F)cc3)=C2C)CC1` to `O=C(NCc1cc(F)cc(F)c1)C1CCN(c2cncnc2N2CCCCC2)CC1`, the RP-LC retention time rises from 690 s to 700 s.

Going from `C[C@H]1CCC/C=C/[C@@H]2C[C@H](O)C[C@H]2[C@H](O)/C=C/C(=O)O1` to `COC1C(=O)N(c2cccc(F)c2)C12CCN(C(=O)Nc1ccccc1)CC2` (stereo not drawn), the RP-LC retention time rises from 782 s to 878 s.

Compared with `O=c1[nH]cc(S(=O)(=O)N2CCCCC2)c(=O)[nH]1`, `COCCCNC(=O)C1CCN(c2cncnc2N2CCOCC2)CC1` is lower in RP-LC retention time: 604 s for the first, 550 s for the second.

Compound `COc1ccccc1OCC(=O)NCC1(c2cccs2)CCCC1` has an RP-LC retention time of 557 s.

— the METLIN SMRT retention time set (Domingo-Almenara et al. 2019)
